The record followed here is ChEMBL document CHEMBL5154912, “Penicillin Derivatives Inhibit the SARS-CoV-2 Main Protease by Reaction with Its Nucleophilic Cysteine” (J Med Chem, 2022).

Calls of active or inactive are those of the source. The calls are words filed in the database; no cut-off is given here.

Assay [1] addresses Replicase polyprotein 1ab (Severe acute respiratory syndrome coronavirus 2) (UniProt P0DTD1). The assay is described as follows: Inhibition of recombinant SARS-CoV-2 Main protease at Cys145 residue by non-covalent binding incubated for 45 mins by MS analysis.
Assay [2] shares this target. Nature of the assay: Inhibition of recombinant SARS-CoV-2 Main protease at Cys145 residue by covalent modification at 10 uM incubated for 45 mins by SPE-MS analysis.
Assay [3] has the same target. Nature of the assay: Inhibition of recombinant SARS-CoV-2 Main protease at Cys145 residue by covalent modification at 33 uM incubated for 45 mins by MS analysis.
The target of assay [4] is Replicase polyprotein 1ab (Severe acute respiratory syndrome coronavirus 2, UniProt P0DTD1). Nature of the assay: Inhibition of recombinant SARS-CoV-2 Main protease using ALNDFSNSGSDVLYQPPQTSITSAVLQ/SGFRKMAFPS-NH2 as substrate preincubated for 45 to 75 mins followed by substrate addition measured after 6 mins by SPE-MS inhibition assay.

Regarding `CC1(C)[C@H](C(=O)OCc2ccccc2)N2C(=O)[C@@H](NC(=O)COc3ccccc3)C[C@H]2S1(=O)=O`, in assay [1], the inhibition result is “Active”.
Take `CC1(C)[C@H](C(=O)OCc2ccccc2)N2C(=O)[C@@H](NC(=O)COc3ccccc3)[C@H]2S1(=O)=O`: the inhibition result in assay [2] is “Active”.
For the compound `C#CCOC(=O)[C@@H]1N2C(=O)[C@@H](NC(=O)COc3ccccc3)[C@H]2S(=O)(=O)C1(C)C`, the inhibition result in assay [3] was “Active”.
On to `CC1(C)[C@H](C(=O)OCOc2ccccc2)N2C(=O)[C@@H](NC(=O)COc3ccccc3)[C@H]2S1(=O)=O`, for which the IC50 in assay [4] stood at 6.6 µM.
